# Tested on: SK-MEL
# Assay: Cytotoxicity against human SK-MEL cells after 48 hrs by neutral red staining
# Assay type: functional, cell-based
smiles,measurement,value
C[C@H]1CC[C@@]2(OC1)O[C@H]1C[C@H]3[C@@H]4CC[C@@H]5C[C@@H](O[C@@H]6O[C@H](CO)[C@H](O[C@@H]7O[C@H](CO)[C@@H](O)[C@H](O)[C@H]7O)[C@H](O)[C@H]6O[C@@H]6O[C@@H](C)[C@H](O)[C@@H](O)[C@H]6O)CC[C@]5(C)[C@H]4CC[C@]3(C)[C@H]1[C@@H]2C,IC50,6.7 mg/L

# — ChEMBL document CHEMBL1154992, “New steroidal glycosides from the fruits of Tribulus terrestris” (J Nat Prod, 2000)
